What was measured:
PHF-tau = assay: Hippocampal PHF-tau in the Tg-TauP301L model of tauopathy (AT8 antibody); format: in vivo; conditions: 12-month-old Tg-Tau-P301L mice treated for six months
neuropeptide Y (Npy) = assay: Whole genome microarray gene expression analysis of aortic genes: Npy; format: in vivo; conditions: ApoE-/- mice, 10 mg/kg/day for 8 months
Procedure: Whole genome microarray gene expression profiling was performed with aortic specimens isolated from 9-month-old ApoE−/− mice without treatment and with oral treatment for 8 months with alizarin (10 mg/kg/day), and untreated age-matched B6 control mice. Total RNA was isolated by the RNeasy Mini kit according to the protocol of the manufacturer (Qiagen). RNA purity was between 1.8 and 2 as determined by the absorbance ratio of 260/280. RNA quality and absence of signs of degradation were also controlled by RNA electrophoresis on a denaturing agarose gel by the presence of bright bands of 28S and 18S ribosomal RNA. Total RNA was processed for whole genome microarray gene expression profiling with the GeneChip One-Cycle Target Labeling System (Affymetrix) according to the protocol of the manufacturer (Affymetrix GeneChip Expression Analysis Technical Manual Rev. 5). […]
Alzheimer's Disease (AD) is the most frequent form of dementia in the elderly. […] Atherosclerotic lesion area was assessed with oil red O-stained aortas isolated from 9-month-old ApoE−/− mice (FIG. 17A). […] The aortic expression levels of neuronal marker genes of alizarin-treated ApoE−/− mice were determined compared to untreated ApoE−/− mice and untreated B6 mice without atherosclerosis (FIG. 17D,E).

[1] = Measurement of serum level in dogs by HPLC; format: in vivo, German shepherd dogs; conditions: for peak serum concentration: t=1 h
Procedure: Serum concentrations of alizarin were determined with serum isolated from the blood of male and female German shepherd dogs (age: 8-9 months) taken at different time points (0.5 h, 1 h, 2 h, 4 h, 6 h, 8 h, 24 h) after oral intake of the indicated doses for 4 weeks. In addition, serum concentrations of alizarin (Compound-1) were determined in male and female Sprague Dawley rats (body weight: 200-250 g) treated for 1 month and/or three months by oral gavage of alizarin at a once daily dose of 100 mg/kg, 50 mg/kg, 25 mg/kg and 12.5 mg/kg. Serum proteins were removed by acetonitrile precipitation, and alizarin was extracted by chloroform before separation on an HPLC-C18 column (Poroshell 120 EC-C18, 3.0×50 mm, Agilent) with an HPLC system (Agilent 1100 Series) and detection at OD245 nm. For quantitative determination of Compound-7 and Compound-10F in rat and dog serum, serum proteins were also removed by acetonitrile precipitation before HPLC analysis as detailed above and detection at OD254 nm.

[2] = Sub-chronic oral toxicity in rats; format: in vivo, Sprague Dawley rats
Procedure: Sub-chronic toxicity studies in dogs (German Shepherd dogs) and rats (Sprague Dawley rats) were performed by the Center of Applied Analytical and Veterinary Studies, Cairo, Egypt.
The oral toxicity of alizarin (Compound-1) in rats was determined in a sub-chronic toxicity study. Rats were treated for 3 months with a once daily oral dose of alizarin of 25 mg/kg/day, 50 mg/kg/day and 100 mg/kg/day. […] The good tolerability of alizarin in rats and dogs is supported by previous observations in humans, which document that long-term treatment for several years with alizarin and alizarin-containing plant extracts is not toxic and was previously used to prevent recurrence of calcium-containing urinary stones (Lorenz et al., Methods Find. Exp. Clin. Pharmacol. 7, 637-643, 1985). Taken together, alizarin has good oral bioavailability and a wide therapeutic window.
Pharmacokinetic data of Compound-7 were determined as another representative TOMM6/Tomm6 inducer with a different chemical structure than alizarin (Compound-1). […] The oral bioavailability of Compound-7 in dogs was much higher than in rats because oral doses of Compound-7 required to achieve equivalent peak serum concentrations were approximately 10-fold higher in rats compared to dogs (FIG. 20B). Again, this observation is in agreement with the equivalent surface area dosage rule, according to which rats and mice usually require a 10-12-fold higher dose than dogs and humans. […] This second peak could reflect enterohepatic recirculation of Compound-7.

Salmonella strain TA1537 = conditions: cited from earlier work
[3] = Body weight and food intake of B6 mice under oral treatment; conditions: oral 100 mg/kg/day for 4 weeks

O=C1c2ccccc2C(=O)c2c1ccc(O)c2O [Compound-1, 1,2-dihydroxyanthraquinone]
hippocampal content of PHF-tau (PHF-tau): significantly decreased hippocampal content of PHF-tau | aortic expression level of Npy (neuropeptide Y (Npy)): not down-regulated and maintained at the levels of the non-transgenic B6 controls | oral bioavailability / serum concentrations after oral intake [1]: achieves therapeutic serum concentrations | time of second serum peak ([1]; after oral intake): 4 h | peak serum concentration ([1]; repeated once daily oral dose of 2 mg/kg): 0.146 ± 0.017 µg/mL | peak serum concentration ([1]; repeated once daily oral dose of 6 mg/kg): 0.467 ± 0.022 µg/mL | time of peak serum concentration ([1]; repeated once daily oral intake of 2 mg/kg/day and 6 mg/kg/day): 1 h | histopathology of heart, liver, kidney ([2]; rats, 3 months, once daily oral 100 mg/kg): did not show any detectable alterations | adverse effects on body, liver, heart and kidney weight, serum calcium, creatinine, BUN, ALT, AST ([2]; rats, 3 months, once daily oral 25, 50 and 100 mg/kg/day): did not find any significant adverse effects | difference between therapeutic and toxic doses (therapeutic index) ([2]; therapeutic dose 10 mg/kg once daily in rodent models): more than 10 fold | mutagenicity in the Ames test (Salmonella strain TA1537): could be mutagenic | body weight ([3]; 12-week-old B6 mice): did not significantly alter | daily food intake / food consumption ([3]; B6 mice): did not significantly alter

Source: patent US20210186947A1, “TOMM6-INTERACTING EXTRACTS AND COMPOUNDS FOR USE IN THE TREATMENT AND PROPHYLAXIS OF NERVOUS SYSTEM DISEASES, ATHEROSCLEROSIS, HEPATITIS B INFECTION AND HUMAN PAPILLOMA VIRUS (HPV) INFECTION” (ETH ZURICH, priority 2018, published 2021)
